From US10654814B2, “Bicyclic hydroxamic acids useful as inhibitors of mammalian histone deacetylase activity” (KANCERA AB, priority 2015, dated 2020) come the findings set out here.

As usually defined, the IC50 is the concentration that gives 50% inhibition.

Counter-ions that a name gives are not always drawn.

HDAC6, sequence (Q9UBN7 whole entry): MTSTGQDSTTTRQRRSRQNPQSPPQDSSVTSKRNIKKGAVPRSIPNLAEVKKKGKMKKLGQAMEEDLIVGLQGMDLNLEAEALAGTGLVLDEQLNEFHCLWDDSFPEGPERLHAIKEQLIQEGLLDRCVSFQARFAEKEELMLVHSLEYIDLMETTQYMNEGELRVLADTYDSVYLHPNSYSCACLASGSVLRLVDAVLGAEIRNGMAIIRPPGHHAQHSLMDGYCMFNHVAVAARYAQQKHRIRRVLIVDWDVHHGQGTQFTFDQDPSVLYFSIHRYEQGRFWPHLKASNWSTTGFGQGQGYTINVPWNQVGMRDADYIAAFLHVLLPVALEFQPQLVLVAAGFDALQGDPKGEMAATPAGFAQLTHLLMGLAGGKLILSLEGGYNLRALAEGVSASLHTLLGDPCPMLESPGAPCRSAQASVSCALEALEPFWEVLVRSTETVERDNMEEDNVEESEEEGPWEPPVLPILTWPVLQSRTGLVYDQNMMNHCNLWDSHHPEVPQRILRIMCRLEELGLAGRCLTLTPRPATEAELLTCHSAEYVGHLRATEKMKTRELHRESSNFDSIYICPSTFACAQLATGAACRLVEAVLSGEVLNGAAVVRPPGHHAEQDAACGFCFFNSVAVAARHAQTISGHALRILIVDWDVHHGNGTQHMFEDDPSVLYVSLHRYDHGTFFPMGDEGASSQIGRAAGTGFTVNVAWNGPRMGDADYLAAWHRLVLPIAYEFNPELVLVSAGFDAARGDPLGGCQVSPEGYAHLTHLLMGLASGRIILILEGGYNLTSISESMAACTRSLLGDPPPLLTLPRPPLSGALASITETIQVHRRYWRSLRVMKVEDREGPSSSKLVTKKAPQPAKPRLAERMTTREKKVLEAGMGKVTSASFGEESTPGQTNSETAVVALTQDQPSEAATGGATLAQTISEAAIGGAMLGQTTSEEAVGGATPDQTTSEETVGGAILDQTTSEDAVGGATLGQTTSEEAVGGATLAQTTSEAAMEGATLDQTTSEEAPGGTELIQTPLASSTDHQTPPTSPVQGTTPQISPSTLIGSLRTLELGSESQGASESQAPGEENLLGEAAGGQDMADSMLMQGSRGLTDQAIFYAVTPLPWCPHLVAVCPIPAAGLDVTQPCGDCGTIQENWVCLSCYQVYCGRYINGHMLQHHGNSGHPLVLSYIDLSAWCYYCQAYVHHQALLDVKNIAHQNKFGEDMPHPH

The target of the experiment is HDAC6 (Homo sapiens (Human), UniProt Q9UBN7). In words: HDAC6 in vitro enzymatic assay (fluorescence). Type of experiment: biochemical. As to conditions: Table 3; read-out: IC50 (nM) for inhibition of HDAC6. On the procedure:
Biological Tests Method for Measurement of Enzymatic Activity of HDACs Materials & Methods
All Examples were tested in HDAC1,2,3,6 and 8 in vitro enzymatic assays. The assay principle is well known (Hauser et al. 2009, Bradner et al. 2010) and all necessary reagents like enzymes, substrates, developer and reference compounds are commercially available (see e.g. BPS Biosciences http://www.bpsbioscience.com/). Stock solutions (10 mM in DMSO) of compounds were serially diluted 1:3 in 11 concentrations with a top concentration of 200 μM for HDAC1,2,3 and 2 μM for HDAC6 and HDAC8. The enzymatic reactions were conducted in a mixture containing assay buffer, bovine serum albumin, HDAC substrate, and a test compound. After enzymatic reaction, developer was added and after an additional incubation time, fluorescence intensity was measured at an excitation wavelength of 360 nm and an emission wavelength of 460 nm. All experiments were performed in duplicate.
Regarding `O=C(NO)c1ccc2nc(NCc3ccc(-c4ccccc4)cc3)[nH]c2c1` [Example 125, 2-(([1,1′-biphenyl]-4-ylmethyl)amino)-N-hydroxy-1H-benzo[d]imidazole-6-carboxamide], the IC50 worked out at 7 nM.

Take `COc1cc(-c2ccccc2F)ccc1-c1nc2cc(C(=O)NO)ccc2o1` [Example 196, 2-(2′-fluoro-3-methoxybiphenyl-4-yl)-N-hydroxy-1,3-benzoxazole-5-carboxamide]: the IC50 amounted to 20 nM.

In the case of `CN(Cc1ccccc1)c1nc2cc(C(=O)NO)ccc2o1` [Example 44, 2-[benzyl(methyl)amino]-N-hydroxy-1,3-benzoxazole-5-carboxamide], the IC50 came out at 63 nM.

For `O=C(NO)c1ccc2oc(Nc3cccc(-c4ccccc4)c3)nc2c1` [Example 230, 2-(biphenyl-3-ylamino)-N-hydroxy-1,3-benzoxazole-5-carboxamide], the IC50 was 7 nM.

Regarding `COc1ccc(-c2nc3ccc(C(=O)NO)cc3o2)cc1` [Example 52, N-hydroxy-2-(4-methoxyphenyl)-1,3-benzoxazole-6-carboxamide], the IC50 came out at 17 nM.

As for `O=C(NO)c1ccc2oc(-c3ccc(CN4CCN(c5ccncc5)CC4)cc3)nc2c1` [Example 209, N-hydroxy-2-{4-[(4-pyridin-4-ylpiperazin-1-yl)methyl]phenyl}-1,3-benzoxazole-5-carboxamide trifluoroacetate], the IC50 was 35 nM.

`CC1CCN(c2ccc(-c3nc4cc(C(=O)NO)ccc4o3)cn2)CC1` [Example 152, N-Hydroxy-2-[6-(4-methylpiperidin-1-yl)pyridin-3-yl]-1,3-benzoxazole-5-carboxamide trifluoroacetate]: the IC50 was 30 nM.

Regarding `COc1ncccc1-c1cc2cc(C(=O)NO)ccc2s1` [Example 97, N-hydroxy-2-(2-methoxypyridin-3-yl)-1-benzothiophene-5-carboxamide], the IC50 worked out at 47 nM.

Regarding `O=C(NO)c1ccc2sc(CN3CCCCC3)nc2c1` [Example 273, N-Hydroxy-2-(piperidin-1-ylmethyl)-1,3-benzothiazole-5-carboxamide], the IC50 stood at 16 nM.

As for `O=C(NO)c1ccc2nc(N3CCN(c4ccc(F)cc4)CC3)[nH]c2c1` [Example 126, 2-(4-(4-fluorophenyl)piperazin-1-yl)-N-hydroxy-1H-benzo[d]imidazole-6-carboxamide], the IC50 stood at 85 nM.

For `Cn1c(N2CCc3ccccc3C2)nc2cc(C(=O)NO)ccc21` [Example 145, 2-(3,4-dihydroisoquinolin-2(1H)-yl)-N-hydroxy-1-methyl-1H-benzo[d]imidazole-5-carboxamide], the IC50 came to 42 nM.

As to `O=C(NO)c1ccc2oc(-c3ccc(NC4CCCCCC4)nc3)nc2c1` [Example 158, 2-[6-(cycloheptylamino)pyridin-3-yl]-N-hydroxy-1,3-benzoxazole-5-carboxamide trifluoroacetate], the IC50 worked out at 34 nM.

As to `COc1cc(-c2cc3ccc(C(=O)NO)cc3s2)ccc1O` [Example 150, N-hydroxy-2-(4-hydroxy-3-methoxyphenyl)-1-benzothiophene-6-carboxamide], the IC50 is 53 nM.

In the case of `Cc1[nH]c2ccccc2c1-c1nc2cc(C(=O)NO)ccc2o1` [Example 228, N-hydroxy-2-(2-methyl-1H-indol-3-yl)-1,3-benzoxazole-5-carboxamide], the IC50 stood at 27 nM.

Consider `CC(C)c1ccc(-c2nc3ncc(C(=O)NO)cc3[nH]2)cc1` [Example 57, N-Hydroxy-2-[4-(1-methylethyl)phenyl]-1H-imidzo[4,5-b]pyridine-6-carboxamide], for which the IC50 came out at 11 nM.

Turning to `COc1cccc2cc(-c3nc4cc(C(=O)NO)ccc4s3)oc12` [Example 81, N-Hydroxy-2-(7-methoxy-1-benzofuran-2-yl)-1,3-benzothiazole-5-carboxamide], the IC50 was 33 nM.

For the compound `COc1ccc(-c2nc3cc(C(=O)NO)ccc3s2)cc1` [Example 78, N-hydroxy-2-(4-methoxyphenyl)-1,3-benzothiazole-5-carboxamide], the IC50 worked out at 12 nM.

As to `CC(C)c1ccc(-c2cc3ncc(C(=O)NO)cc3o2)cc1` [Example 115, N-Hydroxy-2-[4-(1-methylethyl)phenyl]furo[3,2-b]pyridine-6-carboxamide], the IC50 came to 23 nM.

As for `O=C(NO)c1ccc2nc(Nc3cccc(-c4ccccc4)c3)[nH]c2c1` [Example 136, 2-([1,1′-biphenyl]-3-ylamino)-N-hydroxy-1H-benzo[d]imidazole-6-carboxamide], the IC50 turned out to be 72 nM.

With `CS(=O)(=O)c1ccc(-c2ccc(-c3nc4cc(C(=O)NO)ccc4o3)cc2)cc1` [Example 180, N-hydroxy-2-[4′-(methylsulfonyl)biphenyl-4-yl]-1,3-benzoxazole-5-carboxamide], the IC50 worked out at 8 nM.

Take `CC(C)(C)c1ccc(OCc2cc3cc(C(=O)NO)ccc3o2)cc1` [Example 163, 2-[(4-tert-Butylphenoxy)methyl]-N-hydroxy-1-benzofuran-5-carboxamide]: the IC50 is 58 nM.

On to `O=C(NO)c1ccc2oc(-c3ccc(-c4ccc(CN5CCCCC5)cc4)cc3)nc2c1` [Example 30, N-Hydroxy-2-[4′-(piperidin-1-ylmethyl)biphenyl-4-yl]-1,3-benzoxazole-5-carboxamide trifluoroacetate], for which the IC50 stood at 14 nM.

For `CC(C)CN(Cc1nc2cc(C(=O)NO)ccc2s1)CC(C)C` [Example 274, 2-{[Bis(2-methylpropyl)amino]methyl}-N-hydroxy-1,3-benzothiazole-5-carboxamide trifluoroacetate], the IC50 is 16 nM.

As to `N#Cc1ccc(-c2nc3cc(C(=O)NO)ccc3o2)cc1` [Example 36, 2-(4-Cyanophenyl)-N-hydroxy-1,3-benzoxazole-5-carboxamide], the IC50 worked out at 56 nM.

Consider `O=C(NO)c1ccc2cc(-c3cccc(O)c3)oc2c1` [Example 284, N-hydroxy-2-(3-hydroxypheny)-1-benzofuran-6-carboxamide], for which the IC50 was 4 nM.

For the compound `Cc1noc(C)c1-c1ccc(-c2nc3cc(C(=O)NO)ccc3o2)cc1` [Example 181, 2-[4-(3,5-dimethylisoxazol-4-yl)phenyl]-N-hydroxy-1,3-benzoxazole-5-carboxamide], the IC50 was 31 nM.

Turning to `O=C(NO)c1ccc2oc(NC3(c4cccc(F)c4)CCCCC3)nc2c1` [Example 262, 2-{[1-(3-fluorophenyl)cyclohexyl]amino}-N-hydroxy-1,3-benzoxazole-5-carboxamide], the IC50 worked out at 9 nM.

As for `O=C(NO)c1ccc2oc(-c3cccc(O)c3)nc2c1` [Example 220, N-hydroxy-2-(3-hydroxyphenyl)-1,3-benzoxazole-5-carboxamide], the concentration for half-maximal inhibition (IC50) turned out to be 32 nM.

For the compound `CC(C)c1ccc(-c2cc3ncc(C(=O)NO)cc3s2)cc1` [Example 110, N-Hydroxy-2-[4-(1-methylethyl)phenyl]thieno[3,2-b]pyridine-6-carboxamide], the IC50 stood at 50 nM.

For the compound `O=C(NO)c1ccc2sc(Cc3ccc(-c4ccncc4)cc3)nc2c1` [Example 272, N-Hydroxy-2-(4-pyridin-4-ylbenzyl)-1,3-benzothiazole-5-carboxamide trifluoroacetate], the IC50 was determined as 6 nM.

Regarding `Cc1ncccc1-c1nc2cc(C(=O)NO)ccc2o1` [Example 40, N-Hydroxy-2-(2-methylpyridin-3-yl)-1,3-benzoxazole-5-carboxamide trifluoroacetate], the IC50 amounted to 54 nM.
